Data on 20 compounds can be found in ChEMBL document CHEMBL1154660, “Synthesis of pyrrolo[2,3-d]pyrimidine derivatives and their antiproliferative activity against melanoma cell line” (Bioorg Med Chem Lett, 2009).

One assay relates to HS27. The assay can be described thus: Antiproliferative activity against human HS27 cells after 24 hrs by MTT assay. The format is cell-based. The settings on record: HS27, 24 h.
Assay [1] in a line: Antiproliferative activity against human A375P cells after 24 hrs by MTT assay. In kind it is functional, cell-based.

Structures are written as SMILES. pIC50: −log10 of the molar value.

As to `O=C(Nc1ccc(-n2ccc3c(NC(=O)c4ccccc4)ncnc32)cc1)c1cccc(C(F)(F)F)c1`, the pIC50 in the assay with HS27 is 5.23; in assay [1], 5.33.

In the case of `O=C(Nc1ccc(-n2ccc3c(NC(=O)c4ccccc4)ncnc32)cc1)c1ccc(N2CCOCC2)c(C(F)(F)F)c1`, the results for the negative logarithm of the IC50 (pIC50) (in the assay on HS27; in assay [1]) were 5.80 and 6.05, respectively.

As for `Cc1cn(-c2cc(C(=O)Nc3ccc(-n4ccc5c(NC(=O)c6ccccc6)ncnc54)cc3)cc(C(F)(F)F)c2)cn1`, the results for the pIC50 (with HS27; in assay [1]) were 5.55 and 6.10, respectively.

In the case of `CC(=O)Nc1ncnc2c1ccn2-c1ccc(NC(=O)c2ccc(Cl)c(C(F)(F)F)c2)cc1`, the pIC50 (in the assay with HS27; in assay [1]) was < 5.00 throughout.

`Nc1ncnc2c1ccn2-c1ccc(NC(=O)c2cccc(C(F)(F)F)c2)cc1`: the pIC50 is 5.15 with HS27 and 5.01 in assay [1].

`Nc1ncnc2c1ccn2-c1ccc(NC(=O)Nc2ccc(Cl)c(C(F)(F)F)c2)cc1`: the pIC50 in the assay on HS27 was < 5.00; in assay [1], 5.09.

As for `CC(=O)Nc1ncnc2c1ccn2-c1ccc(NC(=O)Nc2ccc(Cl)c(C(F)(F)F)c2)cc1`, the pIC50 (in the assay with HS27; in assay [1]) was < 5.00 each time.

Take `O=C(Nc1ccc(-n2ccc3c(NC(=O)c4ccccc4)ncnc32)cc1)c1ccc(Cl)c(Cl)c1`: the pIC50 with HS27 was 5.30; in assay [1], 5.70.

Take `Nc1ncnc2c1ccn2-c1ccc(NC(=O)Nc2ccc(Cl)c(Cl)c2)cc1`: the pIC50 in the assay with HS27 is 5.54; in assay [1], 5.27.

`CC(=O)Nc1ncnc2c1ccn2-c1ccc(NC(=O)Nc2cccc(Cl)c2Cl)cc1`: the negative logarithm of the IC50 (pIC50) (with HS27; in assay [1]) was < 5.00 throughout.

Turning to `O=C(Nc1ccc(-n2ccc3c(NC(=O)c4ccccc4)ncnc32)cc1)c1ccc(Cl)c(C(F)(F)F)c1`, the values for the pIC50 (in the assay on HS27; in assay [1]) were 5.26 and 5.64, respectively.

Consider `O=C(Nc1ccc(-n2ccc3c(NC(=O)c4ccccc4)ncnc32)cc1)Nc1cccc(C(F)(F)F)c1`, for which the figures for the pIC50 (in the assay on HS27; in assay [1]) were 5.35 and 5.02, respectively.

In the case of `O=C(Nc1ccc(-n2ccc3c(NC(=O)c4ccccc4)ncnc32)cc1)Nc1cc(C(F)(F)F)cc(C(F)(F)F)c1`, the values for the pIC50 (with HS27; in assay [1]) were < 5.00 and 5.01, respectively.

For the compound `O=C(Nc1ccc(-n2ccc3c(NC(=O)c4ccccc4)ncnc32)cc1)Nc1ccc(Cl)c(C(F)(F)F)c1`, the values for the pIC50 (in the assay on HS27; in assay [1]) were 5.22 and 5.34, respectively.

On to `Nc1ncnc2c1ccn2-c1ccc(NC(=O)c2ccc(Cl)c(C(F)(F)F)c2)cc1`, for which the pIC50 was 5.25 in the assay with HS27 and 5.54 in assay [1].

For `O=C(Nc1ccc(-n2ccc3c(NC(=O)c4ccccc4)ncnc32)cc1)Nc1cccc(Cl)c1Cl`, the pIC50 in the assay with HS27 was 5.11; in assay [1], 5.39.

As to `O=C(Nc1ccc(-n2ccc3c(NC(=O)c4ccccc4)ncnc32)cc1)c1cc(C(F)(F)F)cc(C(F)(F)F)c1`, the results for the pIC50 (in the assay on HS27; in assay [1]) were 5.18 and 5.70, respectively.

Consider `Nc1ncnc2c1ccn2-c1ccc(NC(=O)Nc2cc(C(F)(F)F)cc(C(F)(F)F)c2)cc1`, for which the pIC50 in the assay with HS27 is 5.02; in assay [1] it was 5.52.

Turning to `O=C(Nc1ccc(-n2ccc3c(NC(=O)c4ccccc4)ncnc32)cc1)Nc1ccc(Cl)c(Cl)c1`, the pIC50 was 5.35 in the assay with HS27 and 5.40 in assay [1].

`CNC(=O)c1cc(Oc2ccc(NC(=O)Nc3ccc(Cl)c(C(F)(F)F)c3)cc2)ccn1` [SORAFENIB] showed a pIC50 in assay [1] of 5.25.
